From PMC4841940 (Molecular cell, 2016)
“Also recorded” adds a separate entry of the source. One block for each molecule: values may come before it.

Key:
[1] = molecular target: AF9 YEATS domain, wild type (UniProt P42568); experiment: ITC
[2] = molecular target: second bromodomain of BRD3 (UniProt Q15059); experiment: ITC
[3] = tested on: AF9 recruitment to genes in RAW264.7 cells; experiment: FLAG-AF9 ChIP-seq in RAW264.7 cells; assay type: cell-based, mouse; conditions: 10mM crotonate pre-treatment then LPS
[4] = tested on: FLAG-AF9 (WT) recruitment in RAW264.7 cells; experiment: FLAG-ChIP-qPCR, FLAG-AF9; assay type: cell-based, mouse; conditions: increasing concentrations of crotonate, then LPS; Rsad2, Il6, Ifit1, Cmpk2, Gbp2
[5] = tested on: FLAG-AF9 (F59A) recruitment in RAW264.7 cells; experiment: FLAG-ChIP-qPCR, FLAG-AF9; assay type: cell-based, mouse; conditions: increasing concentrations of crotonate, then LPS; Rsad2, Il6, Ifit1, Cmpk2, Gbp2
[6] = tested on: RAW264.7 cells (parental); experiment: qRT-PCR of crotonate-responsive genes, parental cells; assay type: cell-based, mouse; conditions: crotonate pre-treatment before LPS
RAW264.7 cells, AF9 KO = experiment: qRT-PCR of crotonate-responsive genes, AF9 knockout; assay type: cell-based, mouse; conditions: crotonate pre-treatment before LPS
[7] = tested on: RAW264.7 cells, AF9KO + WT; experiment: qRT-PCR, AF9 KO with wild type AF9 addback; assay type: cell-based, mouse; conditions: crotonate pre-treatment before LPS
[8] = tested on: RAW264.7 cells, AF9KO + F59A; experiment: qRT-PCR, AF9 KO with F59A addback; assay type: cell-based, mouse; conditions: crotonate pre-treatment before LPS
[9] = tested on: histone crotonylation (H3K18cr) / crotonyl-CoA; conditions: ref Sabari et al., 2015, cited from earlier work

UniProt Q15059, sequence (Q15059 307-416): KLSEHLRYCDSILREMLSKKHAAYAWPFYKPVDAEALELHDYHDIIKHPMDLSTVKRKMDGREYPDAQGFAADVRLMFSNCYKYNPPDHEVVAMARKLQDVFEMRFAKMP
UniProt P42568, sequence (P42568 1-138): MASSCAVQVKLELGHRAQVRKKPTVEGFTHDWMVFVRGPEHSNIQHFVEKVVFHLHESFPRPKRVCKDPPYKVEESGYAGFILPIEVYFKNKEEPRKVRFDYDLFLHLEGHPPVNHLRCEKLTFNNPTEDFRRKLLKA

Kd [1]: 5 µM
Molecule: histone H3_(1–15)K9ac peptide (from UniProt P68431 2-16)

fold reduced affinity against H3K18ac [2]: 4 fold
Molecule: H3K18pr peptide (acylation series of Figure 4C)

Kd [1]: 500 µM
Molecule: histone H3_(1–15)K9su peptide (from UniProt P68431 2-16)

Molecule: C/C=C/C(=O)O [crotonate]
FLAG-AF9 ChIP-seq signal ([3]; metagene analysis): FLAG-AF9 signal was higher with crotonate treatment only for crotonate responsive genes | mean fold-change in FLAG-AF9 RPKM, crotonate unresponsive genes ([3]; ± 1kb TSS, 233 genes): 0.92 fold | AF9 (WT) ChIP-qPCR signal [4]: AF9 signal increases with increasing concentrations of crotonate | AF9 (F59A) ChIP-qPCR signal, crotonate [5]: the F59A mutant is unresponsive | expression of Ccl3 (non-responsive gene) [6]: unaffected by crotonate pre-treatment | crotonate response in AF9 KO cells (RAW264.7 cells, AF9 KO): significantly reduced response; also recorded: significantly reduced the crotonate response in our model system, but did not abolish it completely | rescue of crotonate response, wild type AF9 addback [7]: addback of wild type AF9 but not mutant AF9 (F59A) rescued this reduction | rescue of crotonate response, AF9 (F59A) addback [8]: not mutant AF9 (F59A) rescued this reduction | effect on crotonyl-CoA and acetyl-CoA ([9]; cellular concentrations): selectively increases cellular concentrations of crotonyl-CoA, the high-energy donor of crotonyl, while leaving acetyl-CoA, the high-energy donor of acetyl, unaffected | effect on Kcr vs Kac [9]: specifically enhances Kcr, and does not significantly affect Kac

fold reduced affinity against H3K18ac [2]: 38 fold
Molecule: H3K18bu peptide (acylation series of Figure 4C)
